Data from BigSolDB 2.1.

CC(=O)N1CCN(c2ccc(OC[C@@H]3CO[C@@](Cn4ccnc4)(c4ccc(Cl)cc4Cl)O3)cc2)CC1 (racemic)
solubility (mole fraction)
Conditions	293.2 K	298.2 K	303.2 K	308.2 K	313.2 K
in NMP	0.0212	0.0242	0.0271	0.0301	0.0333
in ethanol	0.00235	0.00299	0.00361	0.00438	0.00527
